# Source: publication PMC4222822, “Discovery and Characterization of a Potent and Selective Inhibitor of Aedes aegypti Inward Rectifier Potassium Channels” (PLoS ONE, 2014)
# Columns and labels:
# mosquitoes = test: Toxicity when applied to the cuticle (topical); format: in vivo; details: Piermarini, unpublished observations
# AeKir1 [1] = molecular target: T1, AeKir1 (Aedes aegypti, UniProt L0EQS9); test: Whole-cell patch clamp electrophysiology of T-REx-HEK293-AeKir1 cells; format: cell-based
# Procedure: T-REx-HEK293-AeKir1 cells were voltage clamped in the whole-cell configuration of the patch clamp technique after overnight induction with tetracycline (1 µg/ml) essentially as described earlier. Briefly, patch electrodes were pulled from silanized 1.5 mm outer diameter borosilicate microhematocrit tubes using a Narishige PC-10 two-stage puller. Electrode resistance ranged from 3.5 to 5.5 MΩ when filled with the following intracellular solution (in mM): 135 KCl, 2 MgCl2, 1 EGTA, 10 HEPES free acid, 2 Na2ATP (Roche, Indianapolis, IN), pH 7.3, 275 mOsm. The standard bath solution contained (in mM): 135 NaCl, 5 KCl, 2 CaCl2, 1 MgCl2, 5 glucose, 10 HEPES free acid, pH 7.4, 290 mOsm. Whole-cell currents were recorded under voltage-clamp conditions using an Axopatch 200B amplifier (Molecular Devices, Sunnyvale, CA). Electrical connections to the amplifier were made using Ag/AgCl wires and 3 M KCl/agar bridges. Electrophysiological data were collected at 5 kHz and filtered at 1 kHz. Data acquisition and analysis were performed using pClamp 9.2 software (Axon Instruments). All recordings were made at room temperature (20–23°C).
# AeKir1 [2] = molecular target: T1, AeKir1; test: Two-electrode electrophysiology of Xenopus oocytes expressing AeKir1; format: cell-based; details: inward current at −140 mV, 95% CI: 2.3–6.3 µM, n = 4–5 oocytes per concentration, read-out: IC50 of AeKir1 current inhibition
# Procedure: AeKir1 and AeKir2B channels were expressed heterologously in Xenopus laevis oocytes as described previously. In brief, defolliculated Xenopus oocytes (purchased from Ecocyte Bioscience, Austin, TX) were injected with 10 ng (0.35 ng/nL) of either AeKir1 or AeKir2B cRNA and cultured for 3–7 days in OR3 media at 18°C. Oocytes injected with 28 nl of nuclease-free H2O served as controls.
# All electrophysiological experiments on Xenopus oocytes were performed at room temperature. When present, VU625 was dissolved in solution III or solution V to a final concentration of 0.1, 1, 5, 15, or 50 µM (0.05% DMSO). All solutions were delivered by gravity to a RC-3Z oocyte chamber (Warner Instruments, Hamden, CT) via polyethylene tubing at a flow rate of ∼2 ml/min. Solution changes were made with a Rheodyne Teflon 8-way Rotary valve (Model 5012, Rheodyne, Rohnert Park, CA).
# Electrophysiological recordings from oocytes were conducted as described previously In brief, each oocyte was transferred to the holding chamber under superfusion with solution I and impaled with two conventional-glass microelectrodes backfilled with 3 M KCl (resistances of 0.5–1.5 MΩ) to measure membrane potential (Vm) and whole-cell membrane current (Im), respectively. […] All Vm and Im values were recorded by a Digidata 1440A Data Acquisition System (Molecular Devices) and the Clampex module of pCLAMP. […]
# T1 sequence (L0EQS9 entry or part of it): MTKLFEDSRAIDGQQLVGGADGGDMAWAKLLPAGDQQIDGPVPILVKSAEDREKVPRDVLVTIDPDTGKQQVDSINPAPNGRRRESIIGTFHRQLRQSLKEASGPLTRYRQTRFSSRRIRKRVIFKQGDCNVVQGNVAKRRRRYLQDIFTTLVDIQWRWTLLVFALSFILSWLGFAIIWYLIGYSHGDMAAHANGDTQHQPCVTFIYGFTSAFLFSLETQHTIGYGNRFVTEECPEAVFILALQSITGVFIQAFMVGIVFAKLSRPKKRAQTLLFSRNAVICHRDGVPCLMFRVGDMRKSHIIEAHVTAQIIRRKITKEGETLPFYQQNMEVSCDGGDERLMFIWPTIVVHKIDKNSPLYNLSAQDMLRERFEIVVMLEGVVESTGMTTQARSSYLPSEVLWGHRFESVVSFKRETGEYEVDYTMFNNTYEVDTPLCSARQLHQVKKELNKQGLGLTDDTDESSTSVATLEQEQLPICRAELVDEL
smiles,measurement,setting,value
"CCC(=O)N1c2ccc(S(=O)(=O)Nc3cccc(OC)c3)cc2CC1C (stereo not shown) [VU625, N-(3-methoxyphenyl)-2-methyl-1-propionylindoline-5-sulfonamide]",toxicity when applied to the cuticle,mosquitoes,lack of topical activity
same,Hill coefficient (nH),AeKir1 [1]; 95% CI: 0.8–1.3,1.02
same,IC50,"AeKir1 [1]; T-REx-HEK293 cells, 95% CI: 75.4–124.2 nM, n = 4–6",96.8 nM
same,IC50,AeKir1 [2],3800 nM
